Measured values as given in ChEMBL document CHEMBL3872286, “Identification and Mechanistic Evaluation of Hemozoin-Inhibiting Triarylimidazoles Active against Plasmodium falciparum” (ACS Med Chem Lett, 2017).
Calls of active or inactive are those of the source. No cut-off for these calls is given here.

Tests used:
[1] = Inhibition of beta-hematin formation incubated for 5 to 6 hrs by NP40 detergent-mediated assay
Plasmodium falciparum [2] = experiment: Antimalarial activity against chloroquine-sensitive asexual erythrocyte stage of Plasmodium falciparum D6 infected in human type O+ erythrocytes assessed as growth inhibition incubated for 48 hrs by NBT dye based LDH release assay; type: functional, cell-based; details: D6, 48 h
Plasmodium falciparum [3] = experiment: Antimalarial activity against chloroquine-sensitive asexual erythrocyte stage of Plasmodium falciparum NF54 infected in human type O+ erythrocytes assessed as growth inhibition incubated for 48 hrs by NBT dye based LDH release assay; type: functional, cell-based; details: NF54, 48 h
Plasmodium falciparum [4] = experiment: Antimalarial activity against chloroquine-sensitive asexual erythrocyte stage of Plasmodium falciparum NF54 infected in human type O+ erythrocytes assessed as pyknosis at 3 times IC50 by light microscopy; type: functional, cell-based
Plasmodium falciparum [5] = experiment: Antimalarial activity against chloroquine-sensitive asexual erythrocyte stage of Plasmodium falciparum NF54 infected in human type O+ erythrocytes assessed as smaller and less complex DNA by flow cytometry; type: functional, cell-based
[6] = Selectivity index, ratio of cytotoxic activity against CHO cells to IC50 for Plasmodium falciparum infected in human type O+ erythrocytes; type: toxicity, cell-based; details: hamster, read-out: Selectivity Index
[7] = Cytotoxicity against CHO cells assessed as decrease in cell viability by MTT assay; type: toxicity, cell-based, Cricetulus griseus; details: chinese hamster
Plasmodium falciparum [8] = experiment: Antimalarial activity against chloroquine-sensitive asexual erythrocyte stage of Plasmodium falciparum NF54 infected in human type O+ erythrocytes assessed as decrease in DNA level by flow cytometry; type: functional, cell-based
Plasmodium falciparum [9] = experiment: Antimalarial activity against chloroquine-resistant asexual erythrocyte stage of Plasmodium falciparum K1 infected in human type O+ erythrocytes assessed as growth inhibition incubated for 48 hrs by NBT dye based LDH release assay; type: functional, cell-based; details: K1, 48 h
[10] = Resistance index, ratio of IC50 for chloroquine-resistant asexual erythrocyte stage of Plasmodium falciparum K1 infected in human type O+ erythrocytes to IC50 for chloroquine-sensitive asexual erythrocyte stage of Plasmodium falciparum NF54 infected in human type O+ erythrocytes; type: functional
Plasmodium falciparum [11] = experiment: Antimalarial activity against chloroquine-sensitive Plasmodium falciparum D6 infected in human erythrocytes assessed as inhibition of beta-hematin formation by measuring increase in intracellular free heme level; type: functional, cell-based
Plasmodium falciparum [12] = experiment: Antimalarial activity against chloroquine-sensitive Plasmodium falciparum D6 infected in human erythrocytes assessed as inhibition of beta-hematin formation by measuring increase in intracellular free heme level at 2.5 times IC50; type: functional, cell-based; set-up: scale not given: the % may be the effect or the level left
Plasmodium falciparum [13] = experiment: Antimalarial activity against chloroquine-resistant asexual erythrocyte stage of Plasmodium falciparum K1 infected in human type O+ erythrocytes assessed as growth inhibition incubated for 72 hrs by NBT dye based LDH release assay; type: functional, cell-based; details: K1, 72 h
Plasmodium falciparum [14] = experiment: Inhibition of beta-hematin formation in human erythrocytes infected with chloroquine-sensitive Plasmodium falciparum D6 assessed as increase in intracellular free heme level by SYBR Green I fluorescence assay; set-up: scale not given: the % may be the effect or the level left

## c1ccc(-c2nc(-c3ccncc3)[nH]c2-c2ccccc2)cc1
[1]
  IC50: 25.4 µM
Plasmodium falciparum [2]
  IC50: 10.8 µM

## c1ccc(-c2ncc[nH]2)cc1 [2-PHENYLIMIDAZOLE]
[1]
  IC50: > 1000 µM

## CCN(CC)CCCC(C)Nc1ccnc2cc(Cl)ccc12 (stereo not given) [CHLOROQUINE]
[1]
  IC50: 315 µM

## CCOc1cc(-c2nc(-c3ccc(F)cc3)c(-c3ccc(F)cc3)[nH]2)ccc1O
[1]
  IC50: 18.7 µM
Plasmodium falciparum [2]
  IC50: 2.4 µM

## Brc1ccc2[nH]cc(-c3nc(-c4ccccc4)c(-c4ccccc4)[nH]3)c2c1
[1]
  IC50: 12.7 µM
Plasmodium falciparum [2]
  IC50: 2.24 µM

## FC(F)(F)Oc1ccc(-c2nc(-c3ccccc3)c(-c3ccccc3)[nH]2)cc1
Plasmodium falciparum [3]
  IC50: 4.2 µM
[1]
  IC50: > 1000 µM
Plasmodium falciparum [4]
  Activity: Active
Plasmodium falciparum [5]
  Activity: Active
[6]
  selectivity ratio: 6.9
[7]
  Activity: 29 µM
Plasmodium falciparum [8]
  Activity: Active

## COc1cc(OC)cc(-c2nc(-c3ccccc3)c(-c3ccc(Cl)cc3)[nH]2)c1
Plasmodium falciparum [3]
  IC50: 1.7 µM
Plasmodium falciparum [9]
  IC50: 2.7 µM
[10]
  Ratio IC50: 1.6
[1]
  IC50: 16.6 µM

## Oc1ccc(-c2nc(-c3ccccc3)c(-c3ccccc3)[nH]2)cc1
Plasmodium falciparum [3]
  IC50: > 32 µM
[1]
  IC50: 17.7 µM

## COc1cc(-c2nc(-c3ccccc3)c(-c3ccc(O)cc3)[nH]2)cc(OC)c1O
[1]
  IC50: 2.4 µM
Plasmodium falciparum [2]
  IC50: 0.7 µM

## O=[N+]([O-])c1ccc(-c2nc(-c3ccccc3)c(-c3ccccc3)[nH]2)cc1
Plasmodium falciparum [3]
  IC50: 15 µM
[1]
  IC50: 19 µM
Plasmodium falciparum [11]
  Activity: > 20 fg
[6]
  selectivity ratio: 7.8
[7]
  Activity: 149 µM

## c1ccc(-c2nc(-c3ccccc3)c(-c3ccccc3)[nH]2)cc1
[1]
  IC50: > 1000 µM
Plasmodium falciparum [2]
  IC50: > 20 µM

## COc1cc(-c2nc(-c3ccccc3)c(-c3ccc(Br)cc3)[nH]2)cc(OC)c1O
[1]
  IC50: 12.6 µM
Plasmodium falciparum [2]
  IC50: 0.31 µM

## COc1ccc(-c2nc(-c3cc(OC)cc(OC)c3)[nH]c2-c2ccc(OC)cc2)cc1
Plasmodium falciparum [3]
  IC50: 1.7 µM
Plasmodium falciparum [9]
  IC50: 1.8 µM
[10]
  Ratio IC50: 1.1
[1]
  IC50: 13.8 µM
Plasmodium falciparum [11]
  Activity: Dose dependent effect
Plasmodium falciparum [12]
  Activity: > 50%
[6]
  selectivity ratio: > 141
[7]
  Activity: > 240 µM

## COc1cc(-c2nc(-c3ccc4c(c3)S(=O)(=O)c3ccccc3-4)c(-c3ccccc3)[nH]2)cc(OC)c1O
[1]
  IC50: 6.2 µM
Plasmodium falciparum [2]
  IC50: 0.61 µM

## COc1cc(OC)cc(-c2nc(-c3ccccc3)c(-c3ccccc3)[nH]2)c1
Plasmodium falciparum [3]
  IC50: 7 µM
[10]
  Ratio IC50: 0.7
[1]
  IC50: 14.6 µM
Plasmodium falciparum [13]
  IC50: 4.7 µM
Plasmodium falciparum [11]
  Activity: Dose dependent effect
Plasmodium falciparum [12]
  Activity: > 50%
[6]
  selectivity ratio: > 206
[7]
  Activity: > 269 µM

## COc1cc(-c2nc(-c3ccccc3)c(-c3ccccc3)[nH]2)cc(OC)c1OC
Plasmodium falciparum [3]
  IC50: 3 µM
[1]
  IC50: 10.9 µM

## Oc1ccc(-c2ncc[nH]2)cc1
Plasmodium falciparum [3]
  IC50: > 20 µM
[1]
  IC50: 347 µM

## COc1cc(-c2nc(-c3ccccc3)c(-c3ccccc3)[nH]2)cc(OC)c1O
Plasmodium falciparum [3]
  IC50: 1.3 µM
Plasmodium falciparum [9]
  IC50: 1.9 µM
[10]
  Ratio IC50: 1.5
[1]
  IC50: 10.2 µM

## COc1cc(OC)c(-c2nc(-c3ccsc3)c(-c3ccccc3)[nH]2)cc1OC
[1]
  IC50: 10 µM
Plasmodium falciparum [2]
  IC50: 11.7 µM

## Nc1ccc(-c2nc(-c3ccccc3)c(-c3ccccc3)[nH]2)cc1
Plasmodium falciparum [3]
  IC50: 42 µM
[1]
  IC50: 16.1 µM

## Oc1ccc(-c2nc(-c3ccccc3)c(-c3ccc(Br)cc3)[nH]2)cc1
[1]
  IC50: 5.6 µM
Plasmodium falciparum [14]
  Activity: 43%
Plasmodium falciparum [2]
  IC50: 9.06 µM
